Experimental data taken from US20250230193A1, “CYCLIC COMPOUND HAVING SELECTIVE KRAS INHIBITORY EFFECT ON HRAS AND NRAS” (CHUGAI SEIYAKU KABUSHIKI KAISHA, priority 2022, published 2025).

Legend:
[1] = biological target: GDP-bound NRAS wild-type protein (Homo sapiens, UniProt P01111); experiment: Binding to NRAS by surface plasmon resonance (SPR), Single Cycle Kinetics; details: SPR; KD ratio class
[2] = biological target: GDP-bound HRAS wild-type protein (Homo sapiens, UniProt P01112); experiment: Binding to HRAS by surface plasmon resonance (SPR), Single Cycle Kinetics; details: SPR; KD ratio class
Chain of GDP-bound HRAS wild-type protein (P01112 whole entry): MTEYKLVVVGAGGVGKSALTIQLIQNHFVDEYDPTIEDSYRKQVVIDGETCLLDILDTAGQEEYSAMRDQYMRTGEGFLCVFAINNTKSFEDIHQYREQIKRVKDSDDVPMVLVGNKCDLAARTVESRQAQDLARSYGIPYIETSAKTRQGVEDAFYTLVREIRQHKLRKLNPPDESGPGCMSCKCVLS

[3] = system: human lung cancer strain NCI-H441; experiment: cells; details: NCI-H441, 96 h, read-out: NCI-H441 IC50 (nM)

Chain of GDP-bound NRAS wild-type protein (P01111 whole entry): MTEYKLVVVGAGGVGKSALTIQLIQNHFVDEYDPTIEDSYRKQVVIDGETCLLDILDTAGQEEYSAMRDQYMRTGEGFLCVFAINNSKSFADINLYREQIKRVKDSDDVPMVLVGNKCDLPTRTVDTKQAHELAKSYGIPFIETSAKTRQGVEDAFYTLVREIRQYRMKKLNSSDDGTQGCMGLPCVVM

Row | SMILES | IC50 [3] | NRAS/KRAS (ratio of KD value for GDP-bound NRAS wild-type protein to KD value for KRAS) [1] | HRAS/KRAS (ratio of KD value for GDP-bound HRAS wild-type protein to KD value for KRAS) [2]
1 | CCO[C@@H]1C[C@H]2C(=O)NC3(CC(C)(C)C3)C(=O)N(C)[C@@H](C3CCCC3)C(=O)N(C)[C@H](C(=O)N(C)C)CC(=O)N(C)[C@@H](CC3CCCC3)C(=O)N[C@@H]([C@@H](C)CC)C(=O)N(C)CC(=O)N(C)[C@H]3C/C=C\CCN(C3=O)[C@@H](Cc3ccc(C(F)(F)F)cc3)C(=O)N(C)CC(=O)N[C@@H](CCc3ccc(C(F)(F)F)c(OC)c3)C(=O)N2C1 [PP1565] | 6.5 nM | A (a compound having 10 or more and less than 20 is denoted as A) | B (a compound having 3 or more and less than 10 is denoted as B)
2 | CCO[C@@H]1C[C@H]2C(=O)NC3(CCC3)C(=O)N(C)[C@@H](C3CCCC3)C(=O)N(C)[C@H](C(=O)N(C)C)CC(=O)N(C)[C@@H](CC3CCC3)C(=O)N[C@@H]([C@@H](C)CC)C(=O)N(C)CC(=O)N(C)[C@H]3C/C=C\CCN(C3=O)[C@@H](CC3CCCCC3)C(=O)N(C)CC(=O)N[C@@H](CCc3cc(F)c(C(F)(F)F)c(F)c3)C(=O)N2C1 [PP1469] | 22.2 nM | A (a compound having 10 or more and less than 20 is denoted as A) | A (a compound having 10 or more and less than 20 is denoted as A)
3 | CCO[C@@H]1C[C@H]2C(=O)NC3(CCC3)C(=O)N(C)[C@@H](C3CCCC3)C(=O)N(C)[C@H](C(=O)N(C)C)CC(=O)N(C)[C@@H](CC(C)C)C(=O)N[C@@H]([C@@H](C)CC)C(=O)N(C)CC(=O)N(C)[C@H]3C/C=C\CCN(C3=O)[C@@H](Cc3ccc(F)cc3)C(=O)N(C)CC(=O)N[C@@H](CCc3cc(F)c(Cl)c(F)c3)C(=O)N2C1 [PP1483] | 90.3 nM | A (a compound having 10 or more and less than 20 is denoted as A) | B (a compound having 3 or more and less than 10 is denoted as B)
4 | CCC[C@H]1C(=O)N[C@@H]([C@@H](C)CC)C(=O)N(C)CC(=O)N(C)[C@H]2C/C=C\CCN(C2=O)[C@@H](Cc2ccc(C(F)(F)F)cc2)C(=O)N(C)CC(=O)N[C@@H](CCc2ccc(Cl)c(Cl)c2)C(=O)N2C[C@H](OCC)C[C@H]2C(=O)NC2(CCC2)C(=O)N(C)[C@@H](C(CC)CC)C(=O)N(C)[C@H](C(=O)N(C)C)CC(=O)N1C [PP1216] | 19.8 nM | AA (a compound having 20 or more is denoted as AA) | A (a compound having 10 or more and less than 20 is denoted as A)
5 | CCO[C@@H]1C[C@H]2C(=O)NC3(CCC3)C(=O)N(C)[C@@H](C(CC)CC)C(=O)N(C)[C@H](C(=O)N(C)C)CC(=O)N(C)[C@@H](CC(C)C)C(=O)N[C@@H]([C@@H](C)CC)C(=O)N(C)CC(=O)N(C)[C@H]3C/C=C\CCN(C3=O)[C@@H](Cc3ccc(F)cc3)C(=O)N(C)CC(=O)N[C@@H](CCc3cc(F)c(C(F)(F)F)c(F)c3)C(=O)N2C1 [PP1519] | 78.2 nM | A (a compound having 10 or more and less than 20 is denoted as A) | A (a compound having 10 or more and less than 20 is denoted as A)
6 | CCC[C@H]1C(=O)N[C@@H]([C@@H](C)CC)C(=O)N(C)CC(=O)N(C)[C@H]2C/C=C\CCN(C2=O)[C@@H](Cc2ccc(C(F)(F)F)cc2)C(=O)N(C)CC(=O)N[C@@H](CCc2cc(F)c(Cl)c(F)c2)C(=O)N2C[C@H](OCC)C[C@H]2C(=O)NC2(CCC2)C(=O)N(C)[C@@H](C(CC)CC)C(=O)N(C)[C@H](C(=O)N(C)C)CC(=O)N1C [PP1231] | 23.1 nM | AA (a compound having 20 or more is denoted as AA) | A (a compound having 10 or more and less than 20 is denoted as A)
7 | CCO[C@@H]1C[C@H]2C(=O)NC3(CCC3)C(=O)N(C)[C@@H](C3CCCC3)C(=O)N(C)[C@H](C(=O)N3CCCCC3)CC(=O)N(C)[C@@H](CC(C)C)C(=O)N[C@@H]([C@@H](C)CC)C(=O)N(C)CC(=O)N(C)[C@H]3C/C=C\CCN(C3=O)[C@@H](Cc3ccc(C(F)(F)F)cc3)C(=O)N(C)CC(=O)N[C@@H](CCc3cc(F)c(C(F)(F)F)c(F)c3)C(=O)N2C1 [PP1290] | 15.4 nM | AA (a compound having 20 or more is denoted as AA) | A (a compound having 10 or more and less than 20 is denoted as A)
8 | CCO[C@@H]1C[C@H]2C(=O)NC3(CCC3)C(=O)N(C)[C@@H](C3CCCC3)C(=O)N(C)[C@H](C)CC(=O)N(C)[C@@H](CC(C)C)C(=O)N[C@@H]([C@@H](C)CC)C(=O)N(C)CC(=O)N(C)[C@H]3C/C=C\CCN(C3=O)[C@@H](Cc3ccc(F)cc3C)C(=O)N(C)CC(=O)N[C@@H](CCc3cc(F)c(C(F)(F)F)c(F)c3)C(=O)N2C1 [PP1493] | 135 nM | B (a compound having 3 or more and less than 10 is denoted as B) | B (a compound having 3 or more and less than 10 is denoted as B)

The remaining molecules from weak to strong by IC50 [3], led by results:

Row | IC50 [3] | SMILES | NRAS/KRAS (ratio of KD value for GDP-bound NRAS wild-type protein to KD value for KRAS) [1] | HRAS/KRAS (ratio of KD value for GDP-bound HRAS wild-type protein to KD value for KRAS) [2]
9 | 117 nM | CCO[C@@H]1C[C@H]2C(=O)NC3(CCC3)C(=O)N(C)[C@@H](C(CC)CC)C(=O)N(C)[C@H](C(=O)N(C)C)CC(=O)N(C)[C@@H](CC)C(=O)N[C@@H]([C@@H](C)CC)C(=O)N(C)CC(=O)N(C)[C@H]3C/C=C\CCN(C3=O)[C@@H](Cc3ccc(C(F)(F)F)cc3)C(=O)N(C)CC(=O)N[C@@H](CCc3ccc4sccc4c3)C(=O)N2C1 [PP1223] | AA (a compound having 20 or more is denoted as AA) | A (a compound having 10 or more and less than 20 is denoted as A)
10 | 36.7 nM | CCO[C@@H]1C[C@H]2C(=O)NC3(CCC3)C(=O)N(C)[C@@H](C3CCCC3)C(=O)N(C)[C@H](C(=O)N3CCOCC3)CC(=O)N(C)[C@@H](CC3CC3)C(=O)N[C@@H]([C@@H](C)CC)C(=O)N(C)CC(=O)N(C)[C@H]3C/C=C\CCN(C3=O)[C@@H](Cc3ccc(F)cc3)C(=O)N(C)CC(=O)N[C@@H](CCc3cc(F)c(C(F)(F)F)c(F)c3)C(=O)N2C1 [PP1496] | A (a compound having 10 or more and less than 20 is denoted as A) | B (a compound having 3 or more and less than 10 is denoted as B)
11 | 36.6 nM | CCO[C@@H]1C[C@H]2C(=O)NC3(CCCC3)C(=O)N(C)[C@@H](C3CCCC3)C(=O)N(C)[C@H](C(=O)N(C)C)CC(=O)N(C)[C@@H](CC(C)C)C(=O)N[C@@H]([C@@H](C)CC)C(=O)N(C)CC(=O)N(C)[C@H]3C/C=C\CCN(C3=O)[C@@H](CC3CCCCC3)C(=O)N(C)CC(=O)N[C@@H](CCc3cc(F)c(C(F)(F)F)c(F)c3)C(=O)N2C1 [PP1473] | A (a compound having 10 or more and less than 20 is denoted as A) | A (a compound having 10 or more and less than 20 is denoted as A)
12 | 31.4 nM | CCO[C@@H]1C[C@H]2C(=O)NC3(CCC3)C(=O)N(C)[C@@H](C3CCCC3)C(=O)N(C)[C@H](C(=O)N3CCOCC3)CC(=O)N(C)[C@@H](CC3CCCCC3)C(=O)N[C@@H]([C@@H](C)CC)C(=O)N(C)CC(=O)N(C)[C@H]3C/C=C\CCN(C3=O)[C@@H](Cc3ccc(C)cc3)C(=O)N(C)CC(=O)N[C@@H](CCc3cc(F)c(C(F)(F)F)c(F)c3)C(=O)N2C1 [PP1420] | A (a compound having 10 or more and less than 20 is denoted as A) | A (a compound having 10 or more and less than 20 is denoted as A)
13 | 29.9 nM | CCO[C@@H]1C[C@H]2C(=O)NC3(CCC3)C(=O)N(C)[C@@H](C3CCCC3)C(=O)N(C)[C@H](C(=O)N3CCOCC3)CC(=O)N(C)[C@@H](CC3CCCCC3)C(=O)N[C@@H]([C@@H](C)CC)C(=O)N(C)CC(=O)N(C)[C@H]3C/C=C\CCN(C3=O)[C@@H](Cc3ccc(C(F)(F)F)cc3)C(=O)N(C)CC(=O)N[C@@H](CCc3cc(F)c(C(F)(F)F)c(F)c3)C(=O)N2C1 [PP1418] | AA (a compound having 20 or more is denoted as AA) | A (a compound having 10 or more and less than 20 is denoted as A)
14 | 13.4 nM | CCO[C@@H]1C[C@H]2C(=O)NC3(CCC3)C(=O)N(C)[C@@H](C3CCCC3)C(=O)N(C)[C@H](C(=O)N(C)C)CC(=O)N(C)[C@@H](CC(C)C)C(=O)N[C@@H]([C@@H](C)CC)C(=O)N(C)CC(=O)N(C)[C@H]3C/C=C\CCN(C3=O)[C@@H](Cc3ccc(F)cc3C)C(=O)N(C)CC(=O)N[C@@H](CCc3cc(F)c(C(F)(F)F)c(F)c3)C(=O)N2C1 [PP1532] | A (a compound having 10 or more and less than 20 is denoted as A) | B (a compound having 3 or more and less than 10 is denoted as B)
15 | 10.2 nM | CCO[C@@H]1C[C@H]2C(=O)NC3(CCC3)C(=O)N(C)[C@@H](C3CCCC3)C(=O)N(C)[C@H](C(=O)N3CCOCC3)CC(=O)N(C)[C@@H](CC(C)C)C(=O)N[C@@H]([C@@H](C)CC)C(=O)N3CC[C@H]3C(=O)N(C)[C@H]3C[C@@H](C)[C@@H](C)CN(C3=O)[C@@H](Cc3ccc(C(F)(F)F)cc3)C(=O)N(C)CC(=O)N[C@@H](CCc3cc(F)c(C(F)(F)F)c(F)c3)C(=O)N2C1 [PP1355] | A (a compound having 10 or more and less than 20 is denoted as A) | B (a compound having 3 or more and less than 10 is denoted as B)
